Reference: the supplement of paper PMC11061612

How the values were obtained:
Test in all cases: Bliss excess, mean over the matrix (fraction); higher = more synergy
[1] = test system: HT-1376 (Bladder Carcinoma)
Procedure, shortened: (§1)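 Bliss excess equals the observed combination effect minus the expected value EA + EB − EA·EB, where EA and EB are the effects of each agent alone. Combination Emax is the second-highest inhibition within the matrix. Inhibition was scaled from CellTiter-Glo 2.0 luminescence, with 0 set by vehicle wells and 1 by blank wells, after 72 hours of two-drug dosing of cells plated in 1536-well plates.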

[2] = test system: KP-1N (Pancreatic Carcinoma)
Procedure, shortened: as §1

[3] = test system: TCCSUP (Bladder Carcinoma)
Procedure, shortened: as §1

[4] = test system: DoTc2-4510 (Cervical Carcinoma)
Procedure, shortened: as §1

[5] = test system: B-CPAP (Thyroid Gland Carcinoma)
Procedure, shortened: as §1

[6] = test system: Calu-3 (Lung Adenocarcinoma)
Procedure, shortened: as §1

[7] = test system: LS-180 (Colorectal Carcinoma)
Procedure, shortened: as §1

[8] = test system: UM-UC-3 (Bladder Carcinoma)
Procedure, shortened: as §1

[9] = test system: CaR-1 (Colorectal Carcinoma)
Procedure, shortened: as §1

[10] = test system: SK-ES-1 (Ewing's Sarcoma)
Procedure, shortened: as §1

[11] = test system: HCC1806 (Breast Carcinoma)
Procedure, shortened: as §1

ES4 (Ewing's Sarcoma) = test system: ES4 (Ewing's Sarcoma)
Procedure, shortened: as §1

[12] = test system: MDA-MB-361 (Breast Carcinoma)
Procedure, shortened: as §1

[13] = test system: Ramos-2G6-4C10 (Burkitt's Lymphoma)
Procedure, shortened: as §1

[14] = test system: NCI-H2085 (Non-Small Cell Lung Carcinoma)
Procedure, shortened: as §1

NB10 (Neuroblastoma) = test system: NB10 (Neuroblastoma)
Procedure, shortened: as §1

NOS-1 (Osteosarcoma) = test system: NOS-1 (Osteosarcoma)
Procedure, shortened: as §1

[15] = test system: MFE-296 (Endometrial Carcinoma)
Procedure, shortened: as §1

[16] = test system: HuP-T4 (Pancreatic Carcinoma)
Procedure, shortened: as §1

[17] = test system: LNCaP-Clone-FGC (Prostate Carcinoma)
Procedure, shortened: as §1

Compound | Bliss excess [1] | Bliss excess [2] | Bliss excess [3] | Bliss excess [4] | Bliss excess [5] | Bliss excess [6] | Bliss excess [7] | Bliss excess [8] | Bliss excess [9] | Bliss excess [10] | Bliss excess [11] | Bliss excess (ES4 (Ewing's Sarcoma)) | Bliss excess [12] | Bliss excess [13] | Bliss excess [14] | Bliss excess (NB10 (Neuroblastoma)) | Bliss excess (NOS-1 (Osteosarcoma)) | Bliss excess [15] | Bliss excess [16] | Bliss excess [17]
CN(C)CCCOc1ccc(-c2ccc3ncc4c(c3c2)n(C2CCOCC2)c(=O)n4C)cn1 [AZD0156] + C=CCn1c(=O)c2cnc(Nc3ccc(N4CCN(C)CC4)cc3)nc2n1-c1cccc(C(C)(C)O)n1 [AZD1775] (first compound max 1 µM, partner max 1 µM) | -0.134 | -0.0207 | -0.0651 | -0.0204 | -0.0255 | -0.0378 | -0.0459 | -0.007 | -0.0445 | 0.0045 | -0.0219 | 0.0122 | -0.006 | 0.0365 | -0.0406 | -0.0093 | -0.0113 | -0.0553 | -0.022 | -0.045
CN(C)CCCOc1ccc(-c2ccc3ncc4c(c3c2)n(C2CCOCC2)c(=O)n4C)cn1 [AZD0156] + CCN(CCO)CCCOc1ccc2c(Nc3cc(CC(=O)Nc4cccc(F)c4)[nH]n3)ncnc2c1 [AZD2811] (first compound max 1 µM, 7x7, partner max 1 µM) | -0.0665 | 0.0312 | -0.0589 | -0.0111 | -0.0224 | -0.0295 | -0.0264 | -0.0079 | -0.0097 | -0.0011 | -0.003 | 0.03 | -0.0078 | 0.0919 | -0.0194 | -0.0464 | -0.0114 | -0.0356 | -0.005 | -0.0257
CN(C)CCCOc1ccc(-c2ccc3ncc4c(c3c2)n(C2CCOCC2)c(=O)n4C)cn1 [AZD0156] + C[C@@H]1COCCN1C2=NC(=NC(=C2)C3(CC3)[S@](=N)(=O)C)C4=C5C=CNC5=NC=C4 [AZD6738] (first compound max 1 µM, 7x7, partner max 10 µM) | -0.0193 | 0.0261 | -0.0255 | 0.0037 | 0.027 | -0.0205 | -0.0347 | 0.0101 | -0.0449 | 0.0267 | 0.0241 | 0.0618 | 0.0366 | 0.0933 | 0.0274 | -0.038 | -0.0241 | -0.0485 | 0.0118 | -0.056
CN(C)CCCOc1ccc(-c2ccc3ncc4c(c3c2)n(C2CCOCC2)c(=O)n4C)cn1 [AZD0156] + O=C(c1cc(Cc2n[nH]c(=O)c3ccccc23)ccc1F)N1CCN(C(=O)C2CC2)CC1 [Olaparib] (first compound max 3 µM, partner max 3 µM) | -0.0417 | -0.0043 | 0.0405 | -0.043 | 0.0785 | -0.0153 | -0.002 | 0.0739 | -0.0014 | 0.393 | 0.191 | 0.116 | 0.0254 | 0.0928 | 0.0267 | 0.334 | 0.0594 | -0.0153 | 0.125 | 0.0755
C=CCn1c(=O)c2cnc(Nc3ccc(N4CCN(C)CC4)cc3)nc2n1-c1cccc(C(C)(C)O)n1 [AZD1775] + C1CN(CCC1(C(=O)N[C@@H](CCO)C2=CC=C(C=C2)Cl)N)C3=NC=NC4=C3C=CN4 [Capivasertib] (first compound max 3 µM, partner max 3 µM) | 0.0513 | -0.0101 | 0.0046 | 0.0408 | 0.0065 | -0.0761 | -0.0513 | 0.0405 | 0.0453 | 0.0726 | 0.0151 | 0.0691 | -0.0156 | 0.0099 | 0.0047 | -0.18 | 0.0118 | -0.0091 | -0.0779 | -0.0492
C=CCn1c(=O)c2cnc(Nc3ccc(N4CCN(C)CC4)cc3)nc2n1-c1cccc(C(C)(C)O)n1 [AZD1775] + C[C@@H]1COCCN1C2=NC(=NC(=C2)C3(CC3)[S@](=N)(=O)C)C4=C5C=CNC5=NC=C4 [AZD6738] (first compound max 1 µM, partner max 10 µM) | -0.0483 | 0.0055 | 0.0305 | 0.0479 | 0.0499 | -0.0181 | -0.0098 | 0.0606 | 0.0177 | 0.0071 | 0.0166 | 0.0417 | -0.0113 | 0.0915 | 0.0147 | 0.0822 | 0.0735 | 0.0428 | 0.0849 | -0.0387
C=CCn1c(=O)c2cnc(Nc3ccc(N4CCN(C)CC4)cc3)nc2n1-c1cccc(C(C)(C)O)n1 [AZD1775] + O=C(c1cc(Cc2n[nH]c(=O)c3ccccc23)ccc1F)N1CCN(C(=O)C2CC2)CC1 [Olaparib] (first compound max 1 µM, partner max 10 µM) | -0.0509 | -0.0239 | 0.0107 | -0.0634 | 0.0393 | -0.0243 | -0.0188 | 0.0251 | -0.0077 | 0.0511 | -0.0294 | 0.0199 | -0.0357 | -0.0238 | -0.0353 | -0.0088 | 0.0285 | -0.0218 | 0.0075 | -0.0242
COc1nnc2ccc(N3CCC(c4ccc(OCCN5CCN(C)C(=O)[C@H]5C)cc4)CC3)nn12 [AZD5153] + CN(CC[C@H](CSC1=CC=CC=C1)NC2=C(C=C(C=C2)S(=O)(=O)NC(=O)C3=CC=C(C=C3)N4CCC(CC4)[C@H](C5=CC=CC=C5C6=CC=C(C=C6)Cl)O)S(=O)(=O)C(F)(F)F)CCO [AZD4320] (first compound max 1 µM, 7x7, partner max 1 µM) |  | -0.0004 | 0.0033 |  | 0.0375 |  |  |  |  | 0.0211 | 0.0257 | -0.0136 | 0.0967 |  |  |  | 0.044 | 0.0104 | 0.0267 | 0.0557
Cc1c2c(nn1C)CSCc1cc(n(C)n1)CSc1cc(c3ccccc3c1)OCCCc1c(C(=O)O)n(C)c3c-2c(Cl)ccc13 [AZD5991] + C=CCn1c(=O)c2cnc(Nc3ccc(N4CCN(C)CC4)cc3)nc2n1-c1cccc(C(C)(C)O)n1 [AZD1775] (first compound max 1 µM, partner max 1 µM) | 0.0345 | -0.0696 | -0.0021 | -0.0399 | -0.053 | 0.0194 | 0.0495 | -0.0077 | -0.0103 | -0.0008 | 0.0493 | 0.0578 | -0.052 | -0.0413 | -0.0165 | -0.0441 |  | -0.0025 | -0.0039 | 0.0118
Cc1c2c(nn1C)CSCc1cc(n(C)n1)CSc1cc(c3ccccc3c1)OCCCc1c(C(=O)O)n(C)c3c-2c(Cl)ccc13 [AZD5991] + Cc1cc2ncnn2cc1Nc1ncc2c(n1)n(C1CCOCC1)c(=O)n2C [AZD7648] (first compound max 1 µM, 7x7, partner max 10 µM) | -0.0218 | -0.0518 | -0.0203 |  | -0.0155 | -0.0115 | -0.0213 | 0.0053 | -0.0365 | 0.0001 | -0.0203 | -0.0593 | -0.0344 | 0.0227 | -0.0493 | 0.0047 | 0.0112 | -0.0101 | -0.0562 | -0.0423
CS(=O)(=O)CCNCc1ccc(-c2ccc3ncnc(Nc4ccc(OCc5cccc(F)c5)c(Cl)c4)c3c2)o1 [Lapatinib] + NC1(c2ccc(-c3nc4ccn5c(=O)[nH]nc5c4cc3-c3ccccc3)cc2)CCC1 [MK-2206] (first compound max 10 µM, 7x7, partner max 10 µM) | -0.0333 |  |  | 0.0089 | 0.0102 | 0.0123 | 0.0501 | -0.0065 | -0.0032 |  | 0.0574 |  |  | 0.0215 | 0.0463 | -0.0423 |  | -0.026 |  | 
CC(=O)c1c(C)c2cnc(Nc3ccc(N4CCNCC4)cn3)nc2n(C2CCCC2)c1=O [Palbociclib] + CN(CC[C@H](CSC1=CC=CC=C1)NC2=C(C=C(C=C2)S(=O)(=O)NC(=O)C3=CC=C(C=C3)N4CCC(CC4)[C@H](C5=CC=CC=C5C6=CC=C(C=C6)Cl)O)S(=O)(=O)C(F)(F)F)CCO [AZD4320] (first compound max 10 µM, 7x7, partner max 1 µM) |  | -0.0305 | -0.0607 |  | -0.0241 |  |  |  |  | 0.0334 | -0.0398 | -0.113 | -0.0078 |  |  |  | 0.0414 | -0.0227 | -0.0026 | -0.0902
CCc1c2c(nc3ccc(O)cc13)-c1cc3c(c(=O)n1C2)COC(=O)[C@]3(O)CC [SN-38] + O=C(c1cc(Cc2n[nH]c(=O)c3ccccc23)ccc1F)N1CCN(C(=O)C2CC2)CC1 [Olaparib] (first compound max 0.3 µM, 7x7, partner max 10 µM) | -0.0464 | 0.0647 | 0.0883 | 0.0174 | 0.0148 | 0.0909 | 0.064 | 0.0493 | 0.0221 | 0.0611 | 0.0498 | -0.0648 |  | 0.0338 | -0.0181 | -0.0154 | -0.0251 | 0.0741 | 0.0913 | 
